Data as given in US12285431B2, “Treatment of Rb-negative tumors using topoisomerase inhibitors in combination with cyclin dependent kinase 4/6 inhibitors” (G1 Therapeutics, Inc., priority 2014, dated 2025).

System: MCF7 (breast adenocarcinoma, Rb-positive)
Assay: Cellular proliferation assay (CellTiter-Glo), MCF7
Type: cell-based
Settings: Homo sapiens, MCF7, 144 h, cell viability after six days
Procedure: (§1) Further cellular proliferation assays were conducted using the following cancer cell lines: MCF7 (breast adenocarcinoma—Rb-positive), ZR-75-1 (breast ductal carcinoma—Rb-positive), H69 (human small cell lung cancer—Rb-negative) cells, or A2058 (human metastatic melanoma cells—Rb-negative). These cells were seeded in Costar (Tewksbury, Massachusetts) 3093 96 well tissue culture treated white walled/clear bottom plates. Cells were treated with the compounds of Table 1 as nine point dose response dilution series from 10 uM to 1 nM. Cells were exposed to compounds and then cell viability was determined after either four (H69) or six (MCF7, ZR75-1, A2058) days as indicated using the CellTiter-Glo® luminescent cell viability assay (CTG; Promega, Madison, Wisconsin, United States of America) following the manufacturer's recommendations. Plates were read on BioTek (Winooski, Vermont) Syngergy2 multi-mode plate reader. The Relative Light Units (RLU) were plotted as a result of variable molar concentration and data was analyzed using Graphpad (LaJolla, California) Prism 5 statistical software to determine the EC50 for each compound.

| SMILES | EC50 [nM] |
| --- | --- |
| CC(C)N1CCN(c2ccc(Nc3ncc4cc5n(c4n3)C3(CCCCC3)CNC5=O)nc2)C[C@@H]1C [AA] | 47 |
| C[C@H](O)CN1CCN(c2ccc(Nc3ncc4cc5n(c4n3)C3(CCCCC3)CNC5=O)nc2)CC1 [A] | 75 |
| C[C@H]1CN(c2ccc(Nc3ncc4cc5n(c4n3)C3(CCCCC3)CNC5=O)nc2)CCN1CC1CC1 [B] | 201 |
| CCN(CC)C1CCN(c2ccc(Nc3ncc4cc5n(c4n3)C3(CCCCC3)CNC5=O)nc2)CC1 [CC] | 50 |
| C[C@H](O)CN1CCN(c2ccc(Nc3ncc4cc5n(c4n3)C3(CCCCC3)CNC5=O)nc2)C[C@@H]1C [C] | 88 |
| CN1CCN(c2ccc(Nc3ncc4cc5n(c4n3)C3(CCCCC3)CNC5=O)nc2)CC1(C)C [D] | 57 |
| CC(C)N1CCN(Cc2ccc(Nc3ncc4cc5n(c4n3)C3(CCCCC3)CNC5=O)nc2)CC1 [EE] | 216 |
| CC(C)C1CN(c2ccc(Nc3ncc4cc5n(c4n3)C3(CCCCC3)CNC5=O)nc2)CCN1 (centres unmarked) [E] | 53 |
| CC1(C)CN(c2ccc(Nc3ncc4cc5n(c4n3)C3(CCCCC3)CNC5=O)nc2)CCN1CC1CC1 [H] | 85 |
| CC(C)N1CCN(C(=O)c2ccc(Nc3ncc4cc5n(c4n3)C3(CCCCC3)CNC5=O)nc2)CC1 [II] | 94 |
| CC1(C)CN(c2ccc(Nc3ncc4cc5n(c4n3)C3(CCCCC3)CNC5=O)nc2)CCN1 [I] | 61 |
| C[C@@H]1CN(c2ccc(Nc3ncc4cc5n(c4n3)C3(CCCCC3)CNC5=O)nc2)CCN1C[C@@H](C)O [J] | 70 |
| CCOCCN1CCN(c2ccc(Nc3ncc4cc5n(c4n3)C3(CCCC3)CNC5=O)nc2)CC1 [MMM] | 134 |

System: A2058 (human metastatic melanoma cells, Rb-negative)
Assay: Cellular proliferation assay (CellTiter-Glo), A2058
Type: cell-based
Settings: A2058, 144 h, cell viability after six days
Procedure: as §1

| SMILES | EC50 [nM] |
| --- | --- |
| CCN(CC)C1CCN(c2ccc(Nc3ncc4cc5n(c4n3)C3(CCCCC3)CNC5=O)nc2)CC1 [CC] | > 3000 |
| CN1CCN(c2ccc(Nc3ncc4cc5n(c4n3)C3(CCCCC3)CNC5=O)nc2)CC1(C)C [D] | 1670 |
| CC(C)C1CN(c2ccc(Nc3ncc4cc5n(c4n3)C3(CCCCC3)CNC5=O)nc2)CCN1 (centres unmarked) [E] | 1370 |
| CC1(C)CN(c2ccc(Nc3ncc4cc5n(c4n3)C3(CCCCC3)CNC5=O)nc2)CCN1CC1CC1 [H] | 1310 |
| CC(C)N1CCN(C(=O)c2ccc(Nc3ncc4cc5n(c4n3)C3(CCCCC3)CNC5=O)nc2)CC1 [II] | > 3000 |
| CC1(C)CN(c2ccc(Nc3ncc4cc5n(c4n3)C3(CCCCC3)CNC5=O)nc2)CCN1 [I] | 1060 |
| C[C@@H]1CN(c2ccc(Nc3ncc4cc5n(c4n3)C3(CCCCC3)CNC5=O)nc2)CCN1C[C@@H](C)O [J] | > 3000 |
| CCOCCN1CCN(c2ccc(Nc3ncc4cc5n(c4n3)C3(CCCC3)CNC5=O)nc2)CC1 [MMM] | > 3000 |

System: H69 (human small cell lung cancer, Rb-negative) cells
Assay: Cellular proliferation assay (CellTiter-Glo), H69
Type: cell-based
Settings: NCI-H69, 96 h, cell viability after four days
Procedure: as §1

| SMILES | EC50 [nM] |
| --- | --- |
| CC(C)N1CCN(c2ccc(Nc3ncc4cc5n(c4n3)C3(CCCCC3)CNC5=O)nc2)C[C@@H]1C [AA] | > 3000 |
| C[C@H](O)CN1CCN(c2ccc(Nc3ncc4cc5n(c4n3)C3(CCCCC3)CNC5=O)nc2)CC1 [A] | > 3000 |
| CCN(CC)C1CCN(c2ccc(Nc3ncc4cc5n(c4n3)C3(CCCCC3)CNC5=O)nc2)CC1 [CC] | > 3000 |
| CN1CCN(c2ccc(Nc3ncc4cc5n(c4n3)C3(CCCCC3)CNC5=O)nc2)CC1(C)C [D] | 2910 |
| CC(C)C1CN(c2ccc(Nc3ncc4cc5n(c4n3)C3(CCCCC3)CNC5=O)nc2)CCN1 (centres unmarked) [E] | 2580 |
| CC1(C)CN(c2ccc(Nc3ncc4cc5n(c4n3)C3(CCCCC3)CNC5=O)nc2)CCN1CC1CC1 [H] | 2040 |
| CC(C)N1CCN(C(=O)c2ccc(Nc3ncc4cc5n(c4n3)C3(CCCCC3)CNC5=O)nc2)CC1 [II] | > 3000 |
| CC1(C)CN(c2ccc(Nc3ncc4cc5n(c4n3)C3(CCCCC3)CNC5=O)nc2)CCN1 [I] | 2950 |
| C[C@@H]1CN(c2ccc(Nc3ncc4cc5n(c4n3)C3(CCCCC3)CNC5=O)nc2)CCN1C[C@@H](C)O [J] | > 3000 |
| CCOCCN1CCN(c2ccc(Nc3ncc4cc5n(c4n3)C3(CCCC3)CNC5=O)nc2)CC1 [MMM] | > 3000 |

System: ZR-75-1 (breast ductal carcinoma, Rb-positive)
Assay: Cellular proliferation assay (CellTiter-Glo), ZR-75-1
Type: cell-based
Settings: Homo sapiens, ZR-75-1, 144 h, cell viability after six days, read-out: ZR75-1 Cellular EC50
Procedure: as §1

| SMILES | EC50 [nM] |
| --- | --- |
| CC(C)N1CCN(c2ccc(Nc3ncc4cc5n(c4n3)C3(CCCCC3)CNC5=O)nc2)C[C@@H]1C [AA] | 47 |
| C[C@H](O)CN1CCN(c2ccc(Nc3ncc4cc5n(c4n3)C3(CCCCC3)CNC5=O)nc2)CC1 [A] | 44 |
| C[C@H]1CN(c2ccc(Nc3ncc4cc5n(c4n3)C3(CCCCC3)CNC5=O)nc2)CCN1CC1CC1 [B] | 245 |
| CCN(CC)C1CCN(c2ccc(Nc3ncc4cc5n(c4n3)C3(CCCCC3)CNC5=O)nc2)CC1 [CC] | 38 |
| C[C@H](O)CN1CCN(c2ccc(Nc3ncc4cc5n(c4n3)C3(CCCCC3)CNC5=O)nc2)C[C@@H]1C [C] | 73 |
| CN1CCN(c2ccc(Nc3ncc4cc5n(c4n3)C3(CCCCC3)CNC5=O)nc2)CC1(C)C [D] | 46 |
| CC(C)N1CCN(Cc2ccc(Nc3ncc4cc5n(c4n3)C3(CCCCC3)CNC5=O)nc2)CC1 [EE] | 203 |
| CC(C)C1CN(c2ccc(Nc3ncc4cc5n(c4n3)C3(CCCCC3)CNC5=O)nc2)CCN1 (centres unmarked) [E] | 62 |
| CC1(C)CN(c2ccc(Nc3ncc4cc5n(c4n3)C3(CCCCC3)CNC5=O)nc2)CCN1CC1CC1 [H] | 120 |
| CC(C)N1CCN(C(=O)c2ccc(Nc3ncc4cc5n(c4n3)C3(CCCCC3)CNC5=O)nc2)CC1 [II] | 33 |
| CC1(C)CN(c2ccc(Nc3ncc4cc5n(c4n3)C3(CCCCC3)CNC5=O)nc2)CCN1 [I] | 40 |
| C[C@@H]1CN(c2ccc(Nc3ncc4cc5n(c4n3)C3(CCCCC3)CNC5=O)nc2)CCN1C[C@@H](C)O [J] | 82 |
| CCOCCN1CCN(c2ccc(Nc3ncc4cc5n(c4n3)C3(CCCC3)CNC5=O)nc2)CC1 [MMM] | 141 |

Molecular target: CDK4/CyclinD1 (Homo sapiens, UniProt P11802)
Sequence (P11802 whole entry, species assumed): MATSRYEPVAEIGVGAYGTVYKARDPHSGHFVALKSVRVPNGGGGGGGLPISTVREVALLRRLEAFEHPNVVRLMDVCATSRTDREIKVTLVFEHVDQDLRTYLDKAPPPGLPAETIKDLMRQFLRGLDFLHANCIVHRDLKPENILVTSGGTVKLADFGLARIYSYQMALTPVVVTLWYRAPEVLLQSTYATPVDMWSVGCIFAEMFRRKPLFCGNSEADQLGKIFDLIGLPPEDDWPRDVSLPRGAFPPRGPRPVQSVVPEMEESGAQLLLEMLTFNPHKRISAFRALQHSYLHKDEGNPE
Sequence (P24385 whole entry partner, species assumed): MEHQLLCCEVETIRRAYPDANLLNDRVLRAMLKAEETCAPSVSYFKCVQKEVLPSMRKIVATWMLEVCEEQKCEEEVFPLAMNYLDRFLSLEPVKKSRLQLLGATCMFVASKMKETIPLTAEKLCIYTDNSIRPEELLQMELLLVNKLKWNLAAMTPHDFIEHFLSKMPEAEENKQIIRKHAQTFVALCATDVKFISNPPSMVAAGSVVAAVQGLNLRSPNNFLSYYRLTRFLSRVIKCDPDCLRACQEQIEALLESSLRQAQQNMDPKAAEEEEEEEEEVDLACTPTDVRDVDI
Assay: CDK4/cyclinD1 kinase assay (Nanosyn, Caliper microfluidic kinase detection)
Type: biochemical
Settings: Table 2; 12-point dose-response, ATP at Km (200 μM), 10 hr; read-out: CDK4/CycD1 IC50
Procedure: The assays were performed using microfluidic kinase detection technology (Caliper Assay Platform). The compounds were tested in 12-point dose-response format in singlicate at Km for ATP. Phosphoacceptor substrate peptide concentration used was 1 μM for all assays and Staurosporine was used as the reference compound for all assays. Specifics of each assay are as described below:
CDK4/CyclinD1: Enzyme concentration: 1 nM; ATP concentration: 200 μM; Incubation time: 10 hr.

| SMILES | IC50 [nM] |
| --- | --- |
| CC(C)N1CCN(c2ccc(Nc3ncc4cc5n(c4n3)C3(CCCCC3)CNC5=O)nc2)C[C@@H]1C [AA] | 0.5 |
| C[C@H](O)CN1CCN(c2ccc(Nc3ncc4cc5n(c4n3)C3(CCCCC3)CNC5=O)nc2)CC1 [A] | 4.2 |
| C[C@H]1CN(c2ccc(Nc3ncc4cc5n(c4n3)C3(CCCCC3)CNC5=O)nc2)CCN1CC1CC1 [B] | 0.4 |
| CCN(CC)C1CCN(c2ccc(Nc3ncc4cc5n(c4n3)C3(CCCCC3)CNC5=O)nc2)CC1 [CC] | 1.6 |
| C[C@H](O)CN1CCN(c2ccc(Nc3ncc4cc5n(c4n3)C3(CCCCC3)CNC5=O)nc2)C[C@@H]1C [C] | 1.4 |
| CN1CCN(c2ccc(Nc3ncc4cc5n(c4n3)C3(CCCCC3)CNC5=O)nc2)CC1(C)C [D] | 0.9 |
| CC(C)N1CCN(Cc2ccc(Nc3ncc4cc5n(c4n3)C3(CCCCC3)CNC5=O)nc2)CC1 [EE] | 3.8 |
| CC(C)C1CN(c2ccc(Nc3ncc4cc5n(c4n3)C3(CCCCC3)CNC5=O)nc2)CCN1 (centres unmarked) [E] | 1 |
| CC1(C)CN(c2ccc(Nc3ncc4cc5n(c4n3)C3(CCCCC3)CNC5=O)nc2)CCN1CC1CC1 [H] | 1.5 |
| CC(C)N1CCN(C(=O)c2ccc(Nc3ncc4cc5n(c4n3)C3(CCCCC3)CNC5=O)nc2)CC1 [II] | 2 |
| CC1(C)CN(c2ccc(Nc3ncc4cc5n(c4n3)C3(CCCCC3)CNC5=O)nc2)CCN1 [I] | 2 |

System: HS68 cells
Assay: G1 arrest (cellular G1 and S-phase) assay, propidium iodide flow cytometry
Type: cell-based, human
Settings: Homo sapiens, Hs68, HS68 cells
Procedure: HS68 cells (human skin fibroblast cell line (Rb-positive)) were stained with propidium iodide staining solution and run on Dako Cyan Flow Cytometer. The fraction of cells in G0-G1 DNA cell cycle versus the fraction in S-phase DNA cell cycle was determined using FlowJo 7.2.2 analysis.
The compounds listed in Table 1 were tested for their ability to arrest HS68 cells at the G1 phase of the cell cycle.

| SMILES | EC50 [nM] |
| --- | --- |
| CC(C)N1CCN(c2ccc(Nc3ncc4cc5n(c4n3)C3(CCCCC3)CNC5=O)nc2)C[C@@H]1C [AA] | 70 |
| C[C@H](O)CN1CCN(c2ccc(Nc3ncc4cc5n(c4n3)C3(CCCCC3)CNC5=O)nc2)CC1 [A] | 110 |
| C[C@H]1CN(c2ccc(Nc3ncc4cc5n(c4n3)C3(CCCCC3)CNC5=O)nc2)CCN1CC1CC1 [B] | 90 |
| CCN(CC)C1CCN(c2ccc(Nc3ncc4cc5n(c4n3)C3(CCCCC3)CNC5=O)nc2)CC1 [CC] | 90 |
| C[C@H](O)CN1CCN(c2ccc(Nc3ncc4cc5n(c4n3)C3(CCCCC3)CNC5=O)nc2)C[C@@H]1C [C] | 95 |
| CN1CCN(c2ccc(Nc3ncc4cc5n(c4n3)C3(CCCCC3)CNC5=O)nc2)CC1(C)C [D] | 50 |
| CC(C)N1CCN(Cc2ccc(Nc3ncc4cc5n(c4n3)C3(CCCCC3)CNC5=O)nc2)CC1 [EE] | 125 |
| CC(C)C1CN(c2ccc(Nc3ncc4cc5n(c4n3)C3(CCCCC3)CNC5=O)nc2)CCN1 (centres unmarked) [E] | 75 |
| CC1(C)CN(c2ccc(Nc3ncc4cc5n(c4n3)C3(CCCCC3)CNC5=O)nc2)CCN1CC1CC1 [H] | 85 |
| CC(C)N1CCN(C(=O)c2ccc(Nc3ncc4cc5n(c4n3)C3(CCCCC3)CNC5=O)nc2)CC1 [II] | 40 |
| CC1(C)CN(c2ccc(Nc3ncc4cc5n(c4n3)C3(CCCCC3)CNC5=O)nc2)CCN1 [I] | 80 |
| C[C@@H]1CN(c2ccc(Nc3ncc4cc5n(c4n3)C3(CCCCC3)CNC5=O)nc2)CCN1C[C@@H](C)O [J] | 110 |
| CCOCCN1CCN(c2ccc(Nc3ncc4cc5n(c4n3)C3(CCCC3)CNC5=O)nc2)CC1 [MMM] | 200 |
